13 compounds from US20240101549A1, “N-(2-(4-CYANOTHIAZOLIDIN-3-YL)-2-OXOETHYL)-QUINOLINE-4-CARBOXAMIDES” (AstraZeneca AB, priority 2020, published 2024) can be followed below.

Converted amounts (≈) assume the structure as drawn. Some results are limits rather than exact numbers.

Data set [1] is described as follows: Kinetic solubility. The settings on record: kinetic from dmso stock. The class given is physicochemical.
Description: Kinetic solubility was measured as described in Comput Aided Mol Des 2015, 29, 795.
The subject of data set [2] is Rat Hepatocytes (rHep). Briefly: Metabolic stability in rat hepatocytes (rHep). The format is in vitro ADME. Conditions: n = 1 or geometric mean of n = 2-3.
The nature of data set [3]: Metabolic stability in human liver microsomes (HLM). The class given is in vitro ADME. Conditions: n = 1 or average of n = 2-3.
Description: Metabolic stability in HLM was measured as described in J Comput Aided Mol Des 2015, 29, 795.
Data set [4] can be described thus: Caco-2 cell permeability. Conditions: human, Caco-2, AB intrinsic; n = 1 or average of n = 2-4; read-out: Caco2 AB Intrinsic Papp. The class given is in vitro ADME. On the technique in general: Caco-2 monolayers are a common model of the intestinal barrier.
Description: (§1) Caco-2 cell permeability was measured as described in Mol Pharm 2017, 14, 1601.
Data set [5] deals with FAP (Macaca fascicularis, UniProt A0A2K5VGH4). The data set is described as follows: FAP plasma inhibition assay, cynomolgus plasma. The format is biochemical. The settings on record: cynomolgus plasma diluted 1:40, 75 μM Ala-Pro-AMC; n = 1; read-out: FAP Cyno Plasma IC50. The procedure:
D. FAP Plasma Inhibition Assay This assay was adapted from the method described in Example 237 for detection of FAP target engagement enzyme activity in plasma. […] Compounds were tested using 10 CR, 3 fold dilution series from 500 nM FAC. Two replicates for each assay point were run on the same plate. A fluorescence blank read was taken before substrate addition. […] Plates were incubated for 40 min at rt in the dark. […] IC50 values were determined by plotting % inhibition versus log compound concentration.

In data set [6] the test system is Caco-2 cell. Briefly: Caco-2 cell permeability. The class given is in vitro ADME. The settings on record: bidirectional (ABBA).
Description: as §1

FAP, sequence (A0A2K5VGH4 entry or part of it): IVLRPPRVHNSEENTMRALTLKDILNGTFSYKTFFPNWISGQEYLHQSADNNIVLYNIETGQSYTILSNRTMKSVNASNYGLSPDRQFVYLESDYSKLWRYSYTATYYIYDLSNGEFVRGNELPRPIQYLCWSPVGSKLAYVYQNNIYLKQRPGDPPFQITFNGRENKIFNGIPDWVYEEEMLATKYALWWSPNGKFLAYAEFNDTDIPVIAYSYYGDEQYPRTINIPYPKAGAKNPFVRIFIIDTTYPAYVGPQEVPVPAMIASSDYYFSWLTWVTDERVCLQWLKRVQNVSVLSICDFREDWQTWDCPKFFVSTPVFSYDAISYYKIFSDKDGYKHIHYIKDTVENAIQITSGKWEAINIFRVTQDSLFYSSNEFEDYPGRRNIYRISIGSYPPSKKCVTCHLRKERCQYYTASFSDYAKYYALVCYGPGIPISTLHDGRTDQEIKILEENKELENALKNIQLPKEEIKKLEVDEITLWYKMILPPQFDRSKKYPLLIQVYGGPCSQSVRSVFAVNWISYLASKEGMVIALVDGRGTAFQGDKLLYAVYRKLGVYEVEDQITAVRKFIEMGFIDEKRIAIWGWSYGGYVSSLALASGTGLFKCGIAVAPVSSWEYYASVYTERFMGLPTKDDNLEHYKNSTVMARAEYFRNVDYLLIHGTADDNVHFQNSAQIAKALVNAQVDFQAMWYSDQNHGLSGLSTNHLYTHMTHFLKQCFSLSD

`CC1CCN(c2ccc3nccc(C(=O)NCC(=O)N4CSC[C@H]4C#N)c3c2)C1=O` (single isomer, unassigned) [Example 201, N-(2-((R)-4-Cyanothiazolidin-3-yl)-2-oxoethyl)-6-((R*)-3-methyl-2-oxopyrrolidin-1-yl)quinoline-4-carboxamide]: in data set [1], the concentration in solution (solubility) came to 90 µM (≈ 38.1 µg/mL). For the same compound, the “rHep CLint” value in data set [2] is on record as below 1 μL/min/1E6. For the same compound, the intrinsic metabolic clearance (microsomal CLint) (usually the capacity of the preparation to metabolise the compound, expressed as a volume cleared per time) in data set [3] is below 3 µL/min/mg. For the same compound, the Papp A→B in data set [4] stood at 4.8 ×10⁻⁶ cm/s.
Consider `N#C[C@@H]1CSCN1C(=O)CNC(=O)c1ccnc2ccc(N3CCCC3C3CC3)cc12` (single isomer, unassigned) [Example 199, N-(2-((R)-4-Cyanothiazolidin-3-yl)-2-oxoethyl)-6-((R*)-2-cyclopropyl-pyrrolidin-1-yl)quinoline-4-carboxamide], for which, in data set [2], the “rHep CLint” value came to 250 μL/min/1E6. In data set [3], the intrinsic clearance (microsomal CLint) is above 300 µL/min/mg.
Regarding `COC1CCCN(c2ccc3nccc(C(=O)NCC(=O)N4CSC[C@H]4C#N)c3c2)C1` (mixture of isomers) [Example 41, N-(2-((R)-4-Cyanothiazolidin-3-yl)-2-oxoethyl)-6-((RS)-3-methoxypiperidin-1-yl)quinoline-4-carboxamide], the “rHep CLint” value in data set [2] turned out to be 12 μL/min/1E6. In data set [3], the intrinsic metabolic clearance (microsomal CLint) worked out at 30 µL/min/mg. The Papp A→B in data set [4] is 16 ×10⁻⁶ cm/s.
Take `N#C[C@@H]1CSCN1C(=O)CNC(=O)c1ccnc2ccc(N3CC4(COC4)C3)cc12` [Example 166, (R)—N-(2-(4-Cyanothiazolidin-3-yl)-2-oxoethyl)-6-(2-oxa-6-azaspiro[3.3]heptan-6-yl)quinoline-4-carboxamide]: the IC50 – broadly, the midpoint of a concentration-inhibition curve – in data set [5] worked out at 0.3 nM. Besides, the “Caco2 Bidirectional (ABBA) Efflux Ratio” value in data set [6] was 24. Besides, the “Caco2 Bidirectional (ABBA) A to B Papp” value in data set [6] (A to B, n = 1 or average of n = 2-4) was 0.56 1E−6 · cm/s. Further, the “Caco2 Bidirectional (ABBA) B to A Papp” value in data set [6] (B to A, n = 1 or average of n = 2-4) is given as 13 1E−6 · cm/s. In data set [4], the Papp A→B was 2 ×10⁻⁶ cm/s.
For the compound `N#C[C@@H]1CSCN1C(=O)CNC(=O)c1ccnc2ccc(N3C[C@@H](F)[C@H](F)C3)cc12` (single isomer, unassigned) [Example 214], the solubility (usually how much of the substance goes into solution per volume) in data set [1] came to 230 µM (≈ 99.2 µg/mL). Besides, in data set [3], the microsomal CLint worked out at 27 µL/min/mg.
In the case of `CC1(F)CCN(c2ccc3nccc(C(=O)NCC(=O)N4CSC[C@H]4C#N)c3c2)C1` (mixture of isomers) [Example 198, N-(2-((R)-4-Cyanothiazolidin-3-yl)-2-oxoethyl)-6-((RS)-3-fluoro-3-methylpyrrolidin-1-yl)quinoline-4-carboxamide], in data set [2], the “rHep CLint” value amounted to 22 μL/min/1E6. In data set [3], this compound showed an intrinsic clearance (microsomal CLint) of 20 µL/min/mg.
Compound `N#C[C@@H]1CSCN1C(=O)CNC(=O)c1ccnc2ccc(N3CC(O)C(F)(F)C3)cc12` (mixture of isomers) [Example 224, N-(2-((R)-4-Cyanothiazolidin-3-yl)-2-oxoethyl)-6-((RS)-3,3-difluoro-4-hydroxypyrrolidin-1-yl)quinoline-4-carboxamide] displayed a solubility in data set [1] of 50 µM (≈ 22.4 µg/mL). The “rHep CLint” value in data set [2] is below 1 μL/min/1E6. Further, the microsomal CLint in data set [3] is below 3 µL/min/mg. In addition, the Papp A→B in data set [4] was determined as 1.2 ×10⁻⁶ cm/s.
Consider `COC1(C)CCN(c2ccc3nccc(C(=O)NCC(=O)N4CSC[C@H]4C#N)c3c2)CC1` [Example 42, (R)—N-(2-(4-Cyanothiazolidin-3-yl)-2-oxoethyl)-6-(4-methoxy-4-methylpiperidin-1-yl)quinoline-4-carboxamide], for which the solubility in data set [1] came to 850 µM (≈ 386 µg/mL).
Turning to `N#C[C@@H]1CSCN1C(=O)CNC(=O)c1ccnc2ccc(-c3ccnn3C3CCCCO3)cc12` (mixture of isomers) [Example 176], the concentration in solution in data set [1] (solubility) was 800 µM (≈ 381 µg/mL). For the same compound, the “rHep CLint” value in data set [2] is given as 15 μL/min/1E6.
For `CC1CCCN(c2ccc3nccc(C(=O)NCC(=O)N4CSC[C@H]4C#N)c3c2)C1=O` (single isomer, unassigned) [Example 204, N-(2-((R)-4-Cyanothiazolidin-3-yl)-2-oxoethyl)-6-((R*)-3-methyl-2-oxopiperidin-1-yl)quinoline-4-carboxamide], the “rHep CLint” value in data set [2] stood at 1.8 μL/min/1E6. The compound further came in with a microsomal CLint in data set [3] of 8 µL/min/mg.
`N#C[C@@H]1CSCN1C(=O)CNC(=O)c1ccnc2ccc(N3CCOCC3C(F)(F)F)cc12` (single isomer, unassigned) [Example 85, N-(2-((R)-4-Cyanothiazolidin-3-yl)-2-oxoethyl)-6-((R*)-3-(trifluoromethyl)-morpholino)quinoline-4-carboxamide] gave a solubility in data set [1] of 800 µM (≈ 384 µg/mL). Further, the “rHep CLint” value in data set [2] was found to be 35 μL/min/1E6.
As for `N#C[C@@H]1CSCN1C(=O)CNC(=O)c1ccnc2ccc(N3CCCC3C3CC3)cc12` (single isomer, unassigned) [Example 200, N-(2-((R)-4-Cyanothiazolidin-3-yl)-2-oxoethyl)-6-((R*)-2-cyclopropyl-pyrrolidin-1-yl)quinoline-4-carboxamide], in data set [2], the “rHep CLint” value is listed as above 300 μL/min/1E6. The “HLM CLint” value in data set [3] is above 300 µL/min/mg.
In data set [3], `N#C[C@@H]1CSCN1C(=O)CNC(=O)c1ccnc2ccc(N3CC4(CCC4)C3)cc12` [Example 17, (R)—N-(2-(4-Cyanothiazolidin-3-yl)-2-oxoethyl)-6-(2-azaspiro[3.3]heptan-2-yl)quinoline-4-carboxamide] came in with a microsomal CLint of 48 µL/min/mg.
